Results from ChEMBL document CHEMBL4265887 (Bioorg Med Chem Lett, 2018).
Values after ≈ are worked out from the molar mass of the structure shown. Active and inactive are the calls of the source. The calls are words filed in the database; no cut-off is given here.

Key:
HCT-116 [1] = assay: Cytotoxicity against human HCT116 cells assessed as reduction in cell viability after 48 hrs by MTT assay; type: functional, cell-based; conditions: HCT-116, 48 h
HCT-15 = assay: Cytotoxicity against human HCT15 cells assessed as reduction in cell viability after 48 hrs by MTT assay; type: functional, cell-based; conditions: HCT-15, 48 h
HCT-116 [2] = assay: Induction of apoptosis in human HCT116 cells at 100 nM after 72 hrs by Annexin V-FITC staining-based flow cytometric analysis; type: functional, cell-based
HCT-116 [3] = assay: Induction of apoptosis in human HCT116 cells at 1 uM after 72 hrs by Annexin V-FITC/propidium iodide staining-based flow cytometric analysis; type: functional, cell-based
Aurora kinase B [4] = biological target: T1, Aurora kinase B (Homo sapiens, UniProt Q96GD4); assay: Inhibition of Aurora B phosphorylation at Thr232 residue in human HCT116 cells over 100 nM after 3 hrs by Western blot method; type: cell-based
T1 sequence (Q96GD4 whole entry): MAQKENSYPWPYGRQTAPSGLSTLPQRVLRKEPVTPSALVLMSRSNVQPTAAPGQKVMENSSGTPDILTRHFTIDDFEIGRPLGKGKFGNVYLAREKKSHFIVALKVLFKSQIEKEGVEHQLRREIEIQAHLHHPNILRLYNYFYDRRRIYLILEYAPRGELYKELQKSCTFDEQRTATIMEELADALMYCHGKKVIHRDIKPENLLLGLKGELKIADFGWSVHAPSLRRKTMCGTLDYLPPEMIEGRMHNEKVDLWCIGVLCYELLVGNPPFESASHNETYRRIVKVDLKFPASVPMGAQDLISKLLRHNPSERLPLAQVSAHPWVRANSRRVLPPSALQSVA

[5] = Solubility of the compound in phosphate buffer of pH 7.4 after 24 hrs by RP-HPLC analysis; type: physicochemical; conditions: for solubility at 24 h: phosphate buffer, pH 7.4
[6] = Solubility of the compound in phosphate buffer of pH 2 after 24 hrs by RP-HPLC analysis; type: physicochemical
HCT-116 [7] = assay: Inhibition of cytokinesis in human HCT116 cells at 100 nM after 24 hrs by propidium iodide/RNase staining-based flow cytometric analysis; type: functional, cell-based
HCT-116 [8] = assay: Inhibition of cytokinesis in human HCT116 cells at 1 uM after 24 hrs by propidium iodide/RNase staining-based flow cytometric analysis; type: functional, cell-based
Aurora kinase A = biological target: T2, Aurora kinase A (Homo sapiens, UniProt O14965); assay: Inhibition of recombinant Aurora A (unknown origin) using TAMRA-PKAtide as substrate after 30 mins by fluorescence polarization assay
T2 sequence (O14965 whole entry): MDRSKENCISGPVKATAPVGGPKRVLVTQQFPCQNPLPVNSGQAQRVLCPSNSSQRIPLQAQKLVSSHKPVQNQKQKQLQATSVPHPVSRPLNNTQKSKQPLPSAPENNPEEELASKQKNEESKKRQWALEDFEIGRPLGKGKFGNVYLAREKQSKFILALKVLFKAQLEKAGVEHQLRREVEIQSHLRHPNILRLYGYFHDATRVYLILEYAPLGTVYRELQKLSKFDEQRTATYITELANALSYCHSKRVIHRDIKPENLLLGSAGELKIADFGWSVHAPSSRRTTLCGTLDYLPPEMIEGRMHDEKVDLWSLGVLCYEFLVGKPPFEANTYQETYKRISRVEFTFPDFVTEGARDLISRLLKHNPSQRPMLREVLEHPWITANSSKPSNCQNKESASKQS

Aurora kinase B [9] = biological target: T1, Aurora kinase B; assay: Inhibition of recombinant Aurora B (unknown origin) using TAMRA-PKAtide as substrate after 1 hr by fluorescence polarization assay

solubility at 24 h [5] [µM]	solubility at 24 h [6] [µM]	SMILES	IC50 (HCT-116 [1]) [nM]	IC50 (HCT-15) [nM]	further results
		CC(C)c1cc(NS(=O)(=O)c2ccn(C)n2)cc2c(C(N)=O)c(NC(=O)C3CC3)sc12	760	1260	
		CC(C)c1cc(NS(=O)(=O)c2cccs2)cc2c(C(N)=O)c(NC(=O)C3CC3)sc12	4580		
		CC(C)c1cc(NS(C)(=O)=O)cc2c(C(N)=O)c(NC(=O)C3CC3)sc12	1390		
		CNC(=O)Nc1sc2c(C(C)C)cc(NS(=O)(=O)c3ccc(C)cc3)cc2c1C(N)=O	3800		
		CNC(=O)Nc1sc2c(C(C)C)cc(NS(=O)(=O)c3ccccc3Cl)cc2c1C(N)=O	3410		
98.2 (≈ 46.9 µg/mL)	5.8 (≈ 2.77 µg/mL)	O=C(O)c1ccc(Nc2ncc3c(n2)-c2ccc(Cl)cc2C(c2c(F)cccc2F)=NC3)cc1 [MLN-8054]	850		Activity (HCT-116 [2]): inactive; Activity (HCT-116 [3]): inactive; inhibition (Aurora kinase B [4]): Active
		CCCS(=O)(=O)Nc1cc(C(C)C)c2sc(NC(=O)C3CC3)c(C(N)=O)c2c1	6200		
		Cc1cc(Nc2cc(N3CCN(C)CC3)nc(Sc3ccc(NC(=O)C4CC4)cc3)n2)n[nH]1 [TOZASERTIB]	450	1230	Cytokinesis inhibition (active/inactive call) (HCT-116 [7]): Active; Cytokinesis inhibition (active/inactive call) (HCT-116 [8]): Active
		CCCNS(=O)(=O)Nc1cc(C(C)C)c2sc(NC(=O)NC)c(C(N)=O)c2c1	410	4710	IC50 (Aurora kinase A): 21 nM; IC50 (Aurora kinase B [9]): 11 nM; Activity (HCT-116 [2]): inactive; Cytokinesis inhibition (active/inactive call) (HCT-116 [7]): Active; Activity (HCT-116 [3]): inactive; Cytokinesis inhibition (active/inactive call) (HCT-116 [8]): Active
		CNC(=O)Nc1sc2c(C)cc(NS(=O)(=O)c3ccn(C)n3)cc2c1C(N)=O	9780	> 10000	
6.7 (≈ 2.92 µg/mL)	3.3 (≈ 1.44 µg/mL)	CNC(=O)Nc1sc2c(C(C)C)cc(NS(=O)(=O)c3ccco3)cc2c1C(N)=O	1300		
3.9 (≈ 1.59 µg/mL)	1.1 (≈ 0.449 µg/mL)	CNC(=O)Nc1sc2c(C)cc(NS(=O)(=O)c3ccco3)cc2c1C(N)=O	950	1510	
1.1 (≈ 0.496 µg/mL)		CNC(=O)Nc1sc2c(C3CC3)cc(NS(=O)(=O)c3cccs3)cc2c1C(N)=O	1530		
3 (≈ 1.24 µg/mL)	2.8 (≈ 1.16 µg/mL)	CCCS(=O)(=O)Nc1cc(C(C)C)c2sc(NC(=O)NC)c(C(N)=O)c2c1	770	4440	
6.2 (≈ 2.79 µg/mL)	4.2 (≈ 1.89 µg/mL)	CNC(=O)Nc1sc2c(C(C)C)cc(NS(=O)(=O)c3ccn(C)n3)cc2c1C(N)=O	560	6130	IC50 (Aurora kinase A): 5 nM; IC50 (Aurora kinase B [9]): 17 nM; Activity (HCT-116 [2]): Active; Cytokinesis inhibition (active/inactive call) (HCT-116 [7]): Active; Activity (HCT-116 [3]): Active; Cytokinesis inhibition (active/inactive call) (HCT-116 [8]): Active
	120 (≈ 55.8 µg/mL)	Cc1cc(Nc2cc(N3CCN(C)CC3)nc(Sc3ccc(NC(=O)C4CC4)cc3)n2)[nH]n1 [TOZASERTIB]			solubility ([5]; buffer, pH 7.4, 24 h): 120 µM (≈ 55.8 µg/mL)
		CNC(=O)Nc1sc2c(C(C)C)cc(NS(=O)(=O)c3ccccc3C)cc2c1C(N)=O	1770		

solubility at 24 h [5] [µM]	solubility at 24 h [6] [µM]	SMILES	IC50 (HCT-116 [1]) [nM]	IC50 (HCT-15) [nM]	further results
4.6 (≈ 1.96 µg/mL)	4.3 (≈ 1.83 µg/mL)	CCCCS(=O)(=O)Nc1cc(C(C)C)c2sc(NC(=O)NC)c(C(N)=O)c2c1	950	4040	
3.6 (≈ 1.66 µg/mL)	2.6 (≈ 1.2 µg/mL)	CNC(=O)Nc1sc2c(C(C)C)cc(NS(=O)(=O)c3cccc(C)c3)cc2c1C(N)=O	470	1680	IC50 (Aurora kinase A): 95 nM; IC50 (Aurora kinase B [9]): 46 nM; Activity (HCT-116 [2]): Active; Cytokinesis inhibition (active/inactive call) (HCT-116 [7]): Active; Activity (HCT-116 [3]): Active; Cytokinesis inhibition (active/inactive call) (HCT-116 [8]): Active
		CNC(=O)Nc1sc2c(C(C)C)cc(NS(=O)(=O)C(C)C)cc2c1C(N)=O	2580	8660	
1.7 (≈ 0.759 µg/mL)	1.3 (≈ 0.581 µg/mL)	CNC(=O)Nc1sc2c(C(C)C)cc(NS(=O)(=O)c3ccccc3)cc2c1C(N)=O	310	890	IC50 (Aurora kinase A): 37 nM; IC50 (Aurora kinase B [9]): 35 nM; Activity (HCT-116 [2]): Active; Cytokinesis inhibition (active/inactive call) (HCT-116 [7]): Active; Activity (HCT-116 [3]): Active; Cytokinesis inhibition (active/inactive call) (HCT-116 [8]): Active
12.8 (≈ 5.43 µg/mL)	5.3 (≈ 2.25 µg/mL)	CNC(=O)Nc1sc2c(C)cc(NS(=O)(=O)c3cccs3)cc2c1C(N)=O	790	2190	
		CC(C)c1cc(NS(=O)(=O)C2CCCCC2)cc2c(C(N)=O)c(NC(=O)C3CC3)sc12	9980		
		CCS(=O)(=O)Nc1cc(C(C)C)c2sc(NC(=O)C3CC3)c(C(N)=O)c2c1	2360		
		CNC(=O)Nc1sc2c(C)cc(NS(=O)(=O)c3ccc(C)s3)cc2c1C(N)=O	2360		
4.8 (≈ 2.15 µg/mL)	3.7 (≈ 1.66 µg/mL)	CNC(=O)Nc1sc2c(C3CC3)cc(NS(=O)(=O)c3ccn(C)n3)cc2c1C(N)=O	1190		
		CNC(=O)Nc1sc2c(C(C)C)cc(NS(=O)(=O)c3cccc(Cl)c3)cc2c1C(N)=O	1020	5660	
		CNC(=O)Nc1sc2c(C(C)C)cc(NS(=O)(=O)c3ccc(C)s3)cc2c1C(N)=O	2330	4100	
13.6 (≈ 5.42 µg/mL)	11.4 (≈ 4.54 µg/mL)	CCS(=O)(=O)Nc1cc(C(C)C)c2sc(NC(=O)NC)c(C(N)=O)c2c1	600	4980	IC50 (Aurora kinase A): 24 nM; IC50 (Aurora kinase B [9]): 38 nM; Activity (HCT-116 [2]): inactive; Cytokinesis inhibition (active/inactive call) (HCT-116 [7]): Active; Activity (HCT-116 [3]): inactive; Cytokinesis inhibition (active/inactive call) (HCT-116 [8]): Active
		Cc1cccc(S(=O)(=O)Nc2cc(C(C)C)c3sc(NC(=O)C4CC4)c(C(N)=O)c3c2)c1	9010		
		CNC(=O)Nc1sc2c(C(C)C)cc(NS(=O)(=O)c3ccc(Cl)cc3)cc2c1C(N)=O	7000		
		CC(C)c1cc(NS(=O)(=O)c2ccccc2)cc2c(C(N)=O)c(NC(=O)C3CC3)sc12	1390		IC50 (Aurora kinase A): 827 nM; IC50 (Aurora kinase B [9]): 417 nM
		CNC(=O)Nc1sc2c(C(C)C)cc(NS(C)(=O)=O)cc2c1C(N)=O	1470	4180	
1.4 (≈ 0.653 µg/mL)	1.6 (≈ 0.747 µg/mL)	CNC(=O)Nc1sc2c(C(C)C)cc(NS(=O)(=O)c3cc(C)cs3)cc2c1C(N)=O	340	1680	IC50 (Aurora kinase A): 80 nM; IC50 (Aurora kinase B [9]): 48 nM; Activity (HCT-116 [2]): Active; Cytokinesis inhibition (active/inactive call) (HCT-116 [7]): Active; Activity (HCT-116 [3]): Active; Cytokinesis inhibition (active/inactive call) (HCT-116 [8]): Active
